Test results as given in patent US11718624B2, “Solid state forms of substituted pyrazolopyrimidines and uses thereof” (KSQ Therapeutics, Inc., priority 2020, dated 2023).
Where two headings read alike, the source gives them in different places. Values belong to the compound of their own block, whether it stands above or below them.

What was measured:
[1] = Mouse pharmacokinetic study, single oral dose, plasma; format: in vivo, NOD/SCID mice
Experimental: Mouse pharmacokinetic (PK) studies were conducted using Crystalline Form A of 6-(4-cyclopropyl-6-methoxypyrimidin-5-yl)-1-(4-(1-isopropyl-4-(trifluoromethyl)-1H-imidazol-2-yl)benzyl)-1H-pyrazolo[3,4-d]pyrimidine, as disclosed herein, Crystalline Form 2 of a gentisic acid co-crystal of 6-(4-cyclopropyl-6-methoxypyrimidin-5-yl)-1-(4-(1-isopropyl-4-(trifluoromethyl)-1H-imidazol-2-yl)benzyl)-1H-pyrazolo[3,4-d]pyrimidine, as disclosed herein, and Crystalline Form 8 of a benzoic acid co-crystal of 6-(4-cyclopropyl-6-methoxypyrimidin-5-yl)-1-(4-(1-isopropyl-4-(trifluoromethyl)-1H-imidazol-2-yl)benzyl)-1H-pyrazolo[3,4-d]pyrimidine, as disclosed herein.
The PK studies consisted of single dose oral exposure studies, which were conducted in female NOD/SCID mice (approximately 6 to 8 weeks, and 20-30 g at the time of study) using a compound dose of 300 mg/kg and a dosing volume of 10 mL/kg. The mice were fasted overnight prior to dosing. Animals had free access to food and water post-dosing.
(§1) Blood was sampled serially from the dorsal metatarsal vein at pre-dose, 0.25, 0.5, 1, 2, 4, 8, 24, 48 (crystalline Form 2 only), and 72 hours (crystalline Form 2 only) post PO dosing. Approximately 0.03 mL blood was collected at each time point and centrifuged at 4000 G for 5 minutes at 4° C. to provide plasma. The plasma samples were then stored in a freezer at −75±15° C. prior to LC-MS/MS analysis.
(§2) Concentrations of each compound in the plasma samples were then analyzed using an LC-MS/MS method. WinNonlin (Phoenix™, version 6.1) or other similar software was used for PK calculations. The following PK parameters were calculated, whenever possible from the plasma concentration versus time data: Cmax, Tmax, T1/2, AUCinf, and AUClast. The PK data were described using descriptive statistics such as mean with standard deviation.
Mouse pharmacokinetic (PK) studies were conducted using Crystalline Form 8 of 6-(4-cyclopropyl-6-methoxypyrimidin-5-yl)-1-(4-(1-isopropyl-4-(trifluoromethyl)-1H-imidazol-2-yl)benzyl)-1H-pyrazolo[3,4-d]pyrimidine, as disclosed herein.
as §1, with “8,” for “8, 24, 48 (crystalline Form 2 only),”, “24” for “72”, “hours” for “hours (crystalline Form 2 only)”
as §2, with “of” for “of each”

[2] = Distribution in mouse brain and plasma after repeated oral dosing; format: in vivo; details: female NOD SCID mice; for concentration at 4 h / Kp at 4 h: 4 h (Day 28); for concentration at 24 h / Kp at 24 h: 24 h (Day 28); for Kp at 4 h / Kp at 24 h: brain/plasma, read-out: B/P Ratio
Experimental: Female NOD SCID mice of an age between 6-8 weeks and a body weight range of 18-22 g were purchased from Beijing Anikeeper Biotech Co, Ltd. Animals were habituated to the environment for at least 7 days prior to study initiation. Mice were dosed with Crystalline Form 2 at either 100 mg/kg or 300 mg/kg dose levels via oral gavage for 28 days. After 24 hours following 27 doses of compound, three mice were euthanized via CO2. After four hours following 28 doses of compound, three mice were euthanized via CO2. At each time point the whole brain was collected. In addition, approximately 0.03 mL of blood was collected at each time point and centrifuged at 4000 G for 5 minutes at 4° C. to provide plasma. Samples were then stored in a freezer at −75±15° C. prior to LC-MS/MS analysis. Concentrations of compound in brain homogenates (ng/g) and plasma (ng/ml) were then analyzed using an LC-MS/MS method. The PK data were described using descriptive statistics such as mean with standard deviation.

[3] = Distribution in rat brain and plasma after single oral dose; format: in vivo, Sprague Dawley rats; details: single oral dose 100 mg/kg; for Kp / Cmax / Tmax / half-life / AUC(0-inf): Sprague Dawley, rat; for Kp: brain and plasma, read-out: B/P Conc. Ratio at tmax
Experimental: Male and female Sprague Dawley rats were purchased from Beijing Anikeeper Biotech Co, Ltd. Animals were habituated to the environment prior to study initiation. Rats were dosed with single dose of 100 mg/kg crystalline Form 2 via oral gavage. The rats were fasted overnight prior to dosing. Animals had access to food from 2 hours post dose and free access to water throughout the study. Approximately 0.2 mL of blood was sampled via jugular vein at each time point and centrifuged at 4000 G for 5 minutes at 4° C. to provide plasma. Samples were then stored in a freezer at −75±15° C. prior to LC-MS/MS analysis. Whole brain was collected after hemoperfusion and snap frozen on dry ice prior to storage at −75±15° C. Prior to LC-MS/MS analysis whole brains were weighed and homogenized with water by tissue weight (g) to water volume (ml) ratio 1:3 before analysis. Actual concentration is the measured value multiplied by the dilution factor. The PK data were described using descriptive statistics such as mean with standard deviation.

[4] = Mean, female NOD/SCID mice, single PO dose 300 mg/kg, plasma, 300 mg/kg
[5] = Mouse 8, single PO dose 300 mg/kg, plasma, 300 mg/kg
[6] = Mouse 9, single PO dose 300 mg/kg, plasma, 300 mg/kg
[7] = brain, 100 mg/kg QD oral gavage, read-out: Brain Conc.
[8] = brain, 300 mg/kg QD oral gavage, read-out: Brain Conc.
[9] = plasma, 100 mg/kg QD oral gavage, read-out: Plasma Conc.
[10] = plasma, 300 mg/kg QD oral gavage, read-out: Plasma Conc.
[11] = female, NOD/SCID, mouse, plasma, po, 300 mg/kg, Mouse 11, single PO dose 300 mg/kg
[12] = female, NOD/SCID, mouse, plasma, po, 300 mg/kg, Mouse 12, single PO dose 300 mg/kg

- Cmax [1, 4]: 28900 ng/mL
- Tmax ([1]; Mouse 7, single PO dose 300 mg/kg, plasma): 8.00 h
- AUClast [1, 5]: 835.713 µg·h/mL
- Cmax [1, 5]: 28900 ng/mL
- Cmax [1, 6]: 29000 ng/mL
- Tmax [1, 6]: 12.0 h
- mouse oral exposure levels compared with crystalline Form A (freebase) ([1]; at about 300 mg/kg): higher exposure levels
- half-life ([1]; female, NOD/SCID, mouse, plasma, po, 300 mg/kg, Mouse 7, single PO dose 300 mg/kg): 4.03 h
- concentration at 4 h [2, 7]: 1520 ± 559 ng/g
- concentration at 24 h [2, 7]: 19.5 ng/g
- concentration at 4 h [2, 8]: 6500 ± 1050 ng/g
- concentration at 24 h [2, 8]: 66.1 ± 81.7 ng/g
- Kp at 4 h ([2]; 100 mg/kg QD oral gavage): 0.306 ± 0.125
- Kp at 24 h ([2]; 100 mg/kg QD oral gavage): 0.091 ± 0.014
- Kp at 4 h ([2]; 300 mg/kg QD oral gavage): 0.424 ± 0.018
- Kp at 24 h ([2]; 300 mg/kg QD oral gavage): 0.102 ± 0.007
- concentration at 4 h [2, 9]: 5040 ± 694 ng/mL
- concentration at 24 h [2, 9]: 178 ± 165 ng/mL
- concentration at 4 h [2, 10]: 15300 ± 2320 ng/mL
- concentration at 24 h [2, 10]: 667 ± 852 ng/mL
- AUC0−∞ ([3]; Female SD rats, brain): 120933 ng·h/g
- AUC0−∞ ([3]; Male SD rats, brain): 60596 ng·h/g
- Kp ([3]; Female SD rats): 0.58
- Kp ([3]; Male SD rats): 0.731
- Cmax ([3]; Female SD rats, brain): 5610 ng/g
- Tmax ([3]; Female SD rats, brain): 8 h
- half-life ([3]; Female SD rats, brain): 12.8 h
- AUC(0-inf) ([3]; Female SD rats, plasma): 266 µg·h/mL
- Cmax ([3]; Female SD rats, plasma): 9760 ng/mL
- Tmax ([3]; Female SD rats, plasma): 8 h
- half-life ([3]; Female SD rats, plasma): 16.9 h
- Cmax ([3]; Male SD rats, brain): 3900 ng/g
- Tmax ([3]; Male SD rats, brain): 8 h
- half-life ([3]; Male SD rats, brain): 7.43 h
- AUC(0-inf) ([3]; Male SD rats, plasma): 102 µg·h/mL
- Cmax ([3]; Male SD rats, plasma): 5300 ng/mL
- Tmax ([3]; Male SD rats, plasma): 8 h
- half-life ([3]; Male SD rats, plasma): 9.13 h
SMILES: COc1ncnc(C2CC2)c1-c1ncc2cnn(Cc3ccc(-c4nc(C(F)(F)F)cn4C(C)C)cc3)c2n1 [Crystalline Form 2, 6-(4-cyclopropyl-6-methoxypyrimidin-5-yl)-1-(4-(1-isopropyl-4-(trifluoromethyl)-1H-imidazol-2-yl)benzyl)-1H-pyrazolo[3,4-d]pyrimidine]

- Cmax [1, 4]: 14770 ng/mL
- T1/2 [1, 4]: 6.8 h
- Tmax [1, 4]: 3.50 h
- AUClast ([1]; Mean, female NOD/SCID mice, single PO dose 300 mg/kg, plasma, sampling to 24 h (to 72 h for Form 2), 300 mg/kg): 182.045 µg·h/mL
- AUC(0-t) ([1]; female, NOD/SCID, mouse, plasma, po, 300 mg/kg, Mouse 10, single PO dose 300 mg/kg): 145 µg·h/mL
- Cmax ([1]; female, NOD/SCID, mouse, plasma, po, 300 mg/kg, Mouse 10, single PO dose 300 mg/kg, plasma, read-out: Cmax): 8810 ng/mL
- Tmax ([1]; female, NOD/SCID, mouse, plasma, po, 300 mg/kg, Mouse 10, single PO dose 300 mg/kg, plasma, read-out: Tmax): 8 h
- AUC(0-t) [1, 11]: 168 µg·h/mL
- half-life [1, 11]: 11.4 h
- Cmax ([1]; female, NOD/SCID, mouse, plasma, po, 300 mg/kg, Mouse 11, single PO dose 300 mg/kg, plasma, read-out: Cmax): 18200 ng/mL
- Tmax ([1]; female, NOD/SCID, mouse, plasma, po, 300 mg/kg, Mouse 11, single PO dose 300 mg/kg, plasma, read-out: Tmax): 0.5 h
- AUC(0-t) [1, 12]: 233 µg·h/mL
- half-life [1, 12]: 2.08 h
- Cmax ([1]; female, NOD/SCID, mouse, plasma, po, 300 mg/kg, Mouse 12, single PO dose 300 mg/kg, plasma, read-out: Cmax): 17300 ng/mL
- Tmax ([1]; female, NOD/SCID, mouse, plasma, po, 300 mg/kg, Mouse 12, single PO dose 300 mg/kg, plasma, read-out: Tmax): 2 h
SMILES: COc1ncnc(C2CC2)c1-c1ncc2cnn(Cc3ccc(-c4nc(C(F)(F)F)cn4C(C)C)cc3)c2n1 [Crystalline Form 8, 6-(4-cyclopropyl-6-methoxypyrimidin-5-yl)-1-(4-(1-isopropyl-4-(trifluoromethyl)-1H-imidazol-2-yl)benzyl)-1H-pyrazolo[3,4-d]pyrimidine]

- Tmax [1, 6]: 4.00 h
- Tmax ([1]; female, NOD/SCID, mouse, plasma, po, 300 mg/kg, Mouse 7, single PO dose 300 mg/kg, plasma, read-out: Tmax): 8 h
- half-life ([1]; female, NOD/SCID, mouse, plasma, po, 300 mg/kg, Mouse 8, single PO dose 300 mg/kg): 6.79 h
SMILES: COc1ncnc(C2CC2)c1-c1ncc2cnn(Cc3ccc(-c4nc(C(F)(F)F)cn4C(C)C)cc3)c2n1 [Crystalline Form A, 6-(4-cyclopropyl-6-methoxypyrimidin-5-yl)-1-(4-(1-isopropyl-4-(trifluoromethyl)-1H-imidazol-2-yl)benzyl)-1H-pyrazolo[3,4-d]pyrimidine]
